# Data published in patent EP3050886A1, “Fluorescent dyes and dye precursors” (Bürkert Werke GmbH, priority 2015, dated 2016).
# Key:
# [1] = Long-term stability in anhydrous DMSO (UHPLC-MS/MS); type: physicochemical; settings: 120 µM in anhydrous DMSO, room temperature (23 ± 2 °C), absence of light, after 77 days
# Procedure: To examine whether the pro-fluorophores 5-POGDA and 5-POGAM could be stored for at least two months in solution at room temperature (23 ± 2 °C) and in the absence of light, they were dissolved in anhydrous DMSO solvent and analysed by liquid chromatography-mass spectrometry. The analysis was performed using an UHPLC-MS/MS system (LC-MS 8030, Shimadzu). 5-POGDA or AM (120 µM) were stored in anhydrous DMSO. A solution of 5-CFDA (20 µM) in acetonitrile stored at -80°C was used as internal reference for HPLC-MS/MS analysis. The solution injected was composed of 5-POGDA or AM (1.2 µM), and 5-CFDA (0,2 µM) in H2O/acetonitrile, ratio 1/1 (V/V).
# Data acquisition and analysis were performed using LabSolutions version 5 software. A 1.7 µm Kinetex™ column (50 X 2.1 mm) was used for HPLC. The mobile phase flow rate was fixed at 0.5 ml/min and the following program was applied for the elution: 0-1.2 min, 5-95% B; 1.2-1.4 min, 95% B; 1.4-1.42 min, […] and 1.42-2.8 min, 5% B. Solvent A consisted of 0.05% formic acid in water and solvent B was HPLC grade acetonitrile. 1 µl was injected.
# The mass spectrometer was interfaced with the UHPLC system using an electrospray ion source. […] The percentage of remaining test compound relative to t0 was measured using the peak area on the chromatogram.
# [2] = system: E. coli (ATCC 8739); assay: Labeling of viable or dead E. coli, fluorescence microscopy; type: cell-based, Escherichia coli; settings: 15 µM, 30 min at 37 °C, Figure 4
# Procedure: Escherichia coli (E. coli) (ATCC 8739) and Bacillus subtilis (B. subtilis) (ATCC 6633) strains were routinely grown in Luria Bertani (LB) broth or on LB agar plates for 18h at 37 °C. Waterborne environmental bacteria such as Enterobacter cloacae (E. cloacae), Chryseobacterium indologenes (C. indologenes), Pseudomonas aeruginosa (P. aeruginosa), and E. coli (EC18) were purchased from Eurofins™. Environmental bacteria were grown in LB broth or on casein-peptone soymeal-peptone agar plates for 18h at 37 °C.
# For the staining tests, E. coli (ATCC 8739 or EC18), E. cloacae, C. indologenes, P. aeruginosa and B. subtilis were cultivated in Luria-Bertani (LB) broth until exponential phase at 37°C with shaking at 300 rpm revolutions per minutes (rpm). Bacteria were harvested and washed in sterile phosphate buffer saline solution (PBS) at pH […] by centrifugation at 10000 rpm for 3 min at room temperature (21 ± 2 °C). Then the bacteria were resuspended in PBS at a concentration of 1·10^9 bacteria/ml. Bacteria concentration was calculated according to the turbidity measure at 660 nm (A660nm=1 correspond to bacterial suspension at ∼ 5·10^8 bacteria/ ml).
# Dead bacterial suspensions at 1·10^9 bacteria/ml (negative controls) of these five species of bacteria were prepared individually by addition of 20 µl of bleach containing 2.6 % active chlorine. Bacteria were treated with bleach solution for 15 min. Dead bacteria were washed twice in sterile PBS by centrifugation at 10000 rpm for 3 min at room temperature. The culturability of the negative controls was assessed by plating 100 µl of bacterial suspension onto LB agar or Caso agar and incubating the plates at 37 °C for 72 h.
# Bacteria (100 µl suspension at 1·10^9 bacteria/ml) were stained with 10 µM or 15 µM of pro-fluorophore (5-CFDA, 5-PFDAE, 5-PFDAT, 5-PFDA, 5-COGDA, 5-POGDA or 5-POGAM) in 200 µl of PBS solution containing 0.6 % of glutaraldehyde. Bacteria were incubated at 37 °C for 10 - 60 min with pro-fluorophore in darkness. After bacterial staining, they were washed and resuspended in 100 µl of PBS as described above.
# Staining of the bacterial suspension was observed under a fluorescent microscope. These bacteria were imaged with a Leica DM5500 microscope equipped with FITC filter. […] Images were collected with a 100x objective. Fluorescence intensity of stained bacterial suspension was also measured with FluoroLog®-3 (Horiba Jobin Yvon) spectrofluorometer equipped with sample stirring. Samples were placed in fluorescence grade quartz cuvette having a volume of 1 ml. The excitation wavelength used was 488 nm and emission wavelength used was 517 nm. The same experiment was repeated three times (n = 3).
# The pro-fluorophores according to the present invention are preferably used to label E. coli cells. Viable or dead E. coli (ATCC 8739) are incubated with these fluorophores and commercial 5-CFDA as described above. […] Glutaraldehyde is added to the incubation solutions to improve the retention of the fluorophores in bacteria.
# Bacteria were washed before being imaged with a Leica DM5500 microscope, 100x objective. Scale bars indicate 10 µm.
SMILES,percentage remaining in the solution [1],staining of viable E. coli (microscopy) [2]
"CCCNC(=O)c1ccc2c(c1)C(=O)OC21c2cc(F)c(OCOC(C)=O)cc2Oc2cc(OCOC(C)=O)c(F)cc21 [Example 5-POGAM, 2',7'-difluoro-3-oxo-5-(propylcarbamoyl)-3H-spiroisobenzofuran-1,9'-xanthene-3',6'-diyl diacetoxymethyl ether]",~65%,specifically stained with high fluorescence intensity
"CCCNC(=O)c1ccc2c(c1)C(=O)OC21c2cc(F)c(OC(C)=O)cc2Oc2cc(OC(C)=O)c(F)cc21 [Example 5-POGDA, 2',7'-difluoro-3-oxo-5-(propylcarbamoyl)-3H-spiro[isobenzofuran-1,9'-xanthene]-3',6'-diyl diacetate]",around 18%,specifically stained with high fluorescence intensity
